{"source": "patent US20210255193A1", "about": "“LYSINE REACTIVE PROBES AND USES THEREOF” (The Scripps Research Institute, priority 2017, published 2021)", "assay_in_all_cases": "competitive isoTOP-ABPP", "assay_type_in_all_cases": "binding", "key": {"TTR Transthyretin": {"target": "T1, TTR Transthyretin (Homo sapiens, UniProt P02766)", "T1 construct": "isoTOP-ABPP experiments performed in cell lysates (in vitro); endogenous in cells; host or cells: MDA-MB-231 soluble lysate", "details": "for R value (DMSO/fragment) for probe 1 labeling: P02766_K35; for isoTOP-ABPP ratio (R) at liganded lysine P02766_K35: sol, 231", "summary_of_the_method": "(§1)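 Probe: STP-alkyne, 0.1 mM, 1 h RT, after fragment pretreatment of lysate (esters 50 μM; guanidinylators 100 μM). Tags: light = compound, heavy = DMSO, via CuAAC. Replicates averaged if SD <60% of mean; otherwise lowest ratio used when any R <4.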"}, "[1]": {"target": "T2, ATP6V1F V-type proton ATPase subunit F (Homo sapiens, UniProt Q16864)", "T2 construct": "isoTOP-ABPP experiments performed in cell lysates (in vitro); endogenous in cells; host or cells: soluble proteome of human cancer cell lines (MDA-MB-231; Ramos and Jurkat also prepared)", "T2 sequence (Q16864 whole entry, the tested form may be a part)": "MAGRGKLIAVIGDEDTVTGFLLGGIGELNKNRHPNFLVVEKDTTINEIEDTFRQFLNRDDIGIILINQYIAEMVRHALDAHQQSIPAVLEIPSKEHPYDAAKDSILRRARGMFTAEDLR", "details": "for R value (DMSO/fragment) for probe 1 labeling: Q16864_K6; for isoTOP-ABPP ratio (R) at liganded lysine Q16864_K6: sol, 231", "summary_of_the_method": "as §1"}, "[2]": {"target": "T3, FH Fumarate hydratase, mitochondrial (Homo sapiens, UniProt P07954)", "T3 construct": "isoTOP-ABPP experiments performed in cell lysates (in vitro); endogenous in cells; host or cells: MDA-MB-231 soluble lysate", "T3 sequence (P07954 45-510)": "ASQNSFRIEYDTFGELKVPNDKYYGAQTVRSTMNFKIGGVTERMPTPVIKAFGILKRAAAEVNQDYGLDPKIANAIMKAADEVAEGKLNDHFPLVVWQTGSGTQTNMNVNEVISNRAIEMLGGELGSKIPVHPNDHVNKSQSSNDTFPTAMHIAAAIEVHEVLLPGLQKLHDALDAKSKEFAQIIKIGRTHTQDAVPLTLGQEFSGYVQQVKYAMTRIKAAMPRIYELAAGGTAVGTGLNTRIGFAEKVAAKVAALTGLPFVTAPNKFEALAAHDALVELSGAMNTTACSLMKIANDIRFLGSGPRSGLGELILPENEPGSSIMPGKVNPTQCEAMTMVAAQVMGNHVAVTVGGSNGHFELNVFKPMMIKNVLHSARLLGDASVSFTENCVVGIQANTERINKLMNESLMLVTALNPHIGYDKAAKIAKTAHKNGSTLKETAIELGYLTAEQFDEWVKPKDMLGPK", "details": "for R value (DMSO/fragment) for probe 1 labeling: P07954_K311; for isoTOP-ABPP ratio (R) at liganded lysine P07954_K311: sol, 231", "summary_of_the_method": "as §1"}, "[3]": {"target": "T4, SOD2 Superoxide dismutase (Homo sapiens, UniProt P04179)", "T4 construct": "isoTOP-ABPP experiments performed in cell lysates (in vitro); endogenous in cells; host or cells: MDA-MB-231 soluble lysate", "T4 sequence (P04179 25-222)": "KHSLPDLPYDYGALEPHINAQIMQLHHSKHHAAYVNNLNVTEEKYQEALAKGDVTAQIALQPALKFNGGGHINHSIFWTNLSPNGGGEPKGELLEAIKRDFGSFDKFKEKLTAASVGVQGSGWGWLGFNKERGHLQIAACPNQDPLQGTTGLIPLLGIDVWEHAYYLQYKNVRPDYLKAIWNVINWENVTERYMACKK", "details": "for R value (DMSO/fragment) for probe 1 labeling: P04179_K68, 231 sol; for R value (DMSO/fragment) for probe 1 labeling / isoTOP-ABPP ratio (R) at liganded lysine P04179_K68: 50 uM, in vitro; for isoTOP-ABPP ratio (R) at liganded lysine P04179_K68: sol, 231", "summary_of_the_method": "as §1"}, "[4]": {"target": "T5, NLN Neurolysin, mitochondrial (Homo sapiens, UniProt Q9BYT8)", "T5 construct": "isoTOP-ABPP experiments performed in cell lysates (in vitro); endogenous in cells; host or cells: soluble proteome of human cancer cell lines (MDA-MB-231; Ramos and Jurkat also prepared)", "T5 sequence (Q9BYT8 38-704)": "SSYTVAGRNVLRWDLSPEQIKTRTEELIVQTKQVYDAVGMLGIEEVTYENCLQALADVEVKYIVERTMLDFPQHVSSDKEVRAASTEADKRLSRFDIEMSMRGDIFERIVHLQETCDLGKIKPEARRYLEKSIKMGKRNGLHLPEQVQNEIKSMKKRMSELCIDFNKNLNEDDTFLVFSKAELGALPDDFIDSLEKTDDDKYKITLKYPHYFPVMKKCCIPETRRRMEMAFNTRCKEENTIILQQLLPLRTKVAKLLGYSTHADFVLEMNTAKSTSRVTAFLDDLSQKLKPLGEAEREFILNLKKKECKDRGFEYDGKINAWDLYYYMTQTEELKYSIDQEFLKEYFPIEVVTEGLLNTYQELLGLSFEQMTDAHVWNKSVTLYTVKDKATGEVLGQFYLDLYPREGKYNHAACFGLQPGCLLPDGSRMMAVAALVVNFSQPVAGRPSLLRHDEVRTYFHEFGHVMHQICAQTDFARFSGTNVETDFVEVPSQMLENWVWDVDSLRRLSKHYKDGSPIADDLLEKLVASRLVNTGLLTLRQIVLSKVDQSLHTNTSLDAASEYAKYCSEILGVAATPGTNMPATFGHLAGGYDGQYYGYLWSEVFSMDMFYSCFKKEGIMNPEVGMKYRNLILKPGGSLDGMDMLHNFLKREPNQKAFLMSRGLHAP", "details": "for R value (DMSO/fragment) for probe 1 labeling: Q9BYT8_K253; for isoTOP-ABPP ratio (R) at liganded lysine Q9BYT8_K253: sol, 231", "summary_of_the_method": "as §1"}, "[5]": {"target": "T6, DNMT1 DNA (cytosine-5)-methyltransferase 1 (Homo sapiens, UniProt P26358)", "T6 construct": "isoTOP-ABPP experiments performed in cell lysates (in vitro); endogenous in cells; host or cells: soluble proteome of human cancer cell lines (MDA-MB-231; Ramos and Jurkat also prepared)", "T6 sequence (P26358 whole entry, the tested form may be a part)": "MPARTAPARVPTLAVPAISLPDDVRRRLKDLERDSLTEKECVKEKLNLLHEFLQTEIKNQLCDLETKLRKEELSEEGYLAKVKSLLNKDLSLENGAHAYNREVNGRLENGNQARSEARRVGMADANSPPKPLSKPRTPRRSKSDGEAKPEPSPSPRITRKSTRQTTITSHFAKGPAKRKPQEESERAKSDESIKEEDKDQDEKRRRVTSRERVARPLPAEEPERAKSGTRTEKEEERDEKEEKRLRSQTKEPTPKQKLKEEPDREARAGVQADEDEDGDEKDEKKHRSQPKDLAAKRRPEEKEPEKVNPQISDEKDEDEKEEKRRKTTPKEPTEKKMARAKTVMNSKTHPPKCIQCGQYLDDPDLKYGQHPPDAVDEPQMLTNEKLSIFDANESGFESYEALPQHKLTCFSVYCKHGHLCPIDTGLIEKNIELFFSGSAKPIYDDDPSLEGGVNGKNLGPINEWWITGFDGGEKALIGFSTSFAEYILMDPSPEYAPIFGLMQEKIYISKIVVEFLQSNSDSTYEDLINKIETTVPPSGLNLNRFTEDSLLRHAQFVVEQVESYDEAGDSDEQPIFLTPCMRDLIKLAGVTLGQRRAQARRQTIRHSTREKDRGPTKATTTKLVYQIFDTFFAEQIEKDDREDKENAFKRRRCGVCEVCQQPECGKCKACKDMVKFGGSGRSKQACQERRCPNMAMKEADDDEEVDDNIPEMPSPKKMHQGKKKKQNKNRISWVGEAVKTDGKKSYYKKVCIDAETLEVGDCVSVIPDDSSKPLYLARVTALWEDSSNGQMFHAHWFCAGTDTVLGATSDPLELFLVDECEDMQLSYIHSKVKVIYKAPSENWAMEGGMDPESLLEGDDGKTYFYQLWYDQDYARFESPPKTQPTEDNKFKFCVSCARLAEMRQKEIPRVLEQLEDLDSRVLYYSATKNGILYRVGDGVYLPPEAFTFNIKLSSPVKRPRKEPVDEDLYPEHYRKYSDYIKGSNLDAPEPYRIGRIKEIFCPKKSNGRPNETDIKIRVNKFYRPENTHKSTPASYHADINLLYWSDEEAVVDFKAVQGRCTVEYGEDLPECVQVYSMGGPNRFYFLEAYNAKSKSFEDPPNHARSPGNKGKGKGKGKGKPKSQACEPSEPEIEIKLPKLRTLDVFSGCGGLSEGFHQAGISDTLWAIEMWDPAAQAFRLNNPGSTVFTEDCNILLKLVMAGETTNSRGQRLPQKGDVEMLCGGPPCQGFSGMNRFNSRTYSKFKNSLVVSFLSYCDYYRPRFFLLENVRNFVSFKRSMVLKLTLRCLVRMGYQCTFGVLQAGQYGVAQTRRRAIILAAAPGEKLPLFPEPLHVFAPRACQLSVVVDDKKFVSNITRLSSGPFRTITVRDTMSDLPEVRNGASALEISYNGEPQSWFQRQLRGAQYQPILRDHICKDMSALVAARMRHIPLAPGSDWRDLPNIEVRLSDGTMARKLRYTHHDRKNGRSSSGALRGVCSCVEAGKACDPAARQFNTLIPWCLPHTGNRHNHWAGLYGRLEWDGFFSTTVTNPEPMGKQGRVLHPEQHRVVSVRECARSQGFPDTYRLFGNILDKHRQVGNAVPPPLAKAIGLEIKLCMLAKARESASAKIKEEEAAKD", "details": "for R value (DMSO/fragment) for probe 1 labeling: P26358_K45; for isoTOP-ABPP ratio (R) at liganded lysine P26358_K45: sol, 231", "summary_of_the_method": "as §1"}}, "data": [{"smiles": "O=C(Oc1c(F)c(F)c(F)c(F)c1F)C(c1ccccc1)c1ccccc1", "note": "[fragment 20, Pentafluorophenyl 2,2-diphenylacetate]", "values": [{"measurement": "R value (DMSO/fragment) for probe 1 labeling", "setting": "TTR Transthyretin; 50 uM, 231 sol, in vitro", "result": 1.4}, {"measurement": "R value (DMSO/fragment) for probe 1 labeling", "setting": "[1]; 50 uM, 231 sol, in vitro", "result": 1.1}, {"measurement": "R value (DMSO/fragment) for probe 1 labeling", "setting": "[2]; 50 uM, 231 sol, in vitro", "result": 1.2}, {"measurement": "R value (DMSO/fragment) for probe 1 labeling", "setting": "[3]", "result": 1.0}, {"measurement": "R value (DMSO/fragment) for probe 1 labeling", "setting": "[4]; 50 uM, 231 sol, in vitro", "result": 0.9}, {"measurement": "R value (DMSO/fragment) for probe 1 labeling", "setting": "[5]; 50 uM, 231 sol, in vitro", "result": 7.3}]}, {"smiles": "O=C(Oc1c(F)c(F)c(F)c(F)c1F)c1cc(C(F)(F)F)cc(C(F)(F)F)c1", "note": "[fragment 21, Pentafluorophenyl 3,5-bis(trifluoromethyl)benzoate]", "values": [{"measurement": "R value (DMSO/fragment) for probe 1 labeling", "setting": "TTR Transthyretin; 50 uM, 231 sol, in vitro", "result": 2.6}, {"measurement": "R value (DMSO/fragment) for probe 1 labeling", "setting": "[1]; 50 uM, 231 sol, in vitro", "result": 1.1}, {"measurement": "R value (DMSO/fragment) for probe 1 labeling", "setting": "[2]; 50 uM, 231 sol, in vitro", "result": 1.3}, {"measurement": "R value (DMSO/fragment) for probe 1 labeling", "setting": "[3]", "result": 1.2}, {"measurement": "R value (DMSO/fragment) for probe 1 labeling", "setting": "[4]; 50 uM, 231 sol, in vitro", "result": 0.7}, {"measurement": "R value (DMSO/fragment) for probe 1 labeling", "setting": "[5]; 50 uM, 231 sol, in vitro", "result": 1.4}]}, {"smiles": "COc1cc(CCC(=O)Oc2ccc([N+](=O)[O-])cc2[N+](=O)[O-])cc(OC)c1OC", "note": "[fragment 33, 2,4-Dinitrophenyl 3-(3,4,5-trimethoxyphenyl)propanoate]", "values": [{"measurement": "isoTOP-ABPP reactivity ratio at lysine P02766_K35", "setting": "TTR Transthyretin; 50 uM, 231 sol, in vitro", "result": 2.7}, {"measurement": "isoTOP-ABPP reactivity ratio at lysine Q16864_K6", "setting": "[1]; 50 uM, 231 sol, in vitro", "result": 0.8}, {"measurement": "isoTOP-ABPP reactivity ratio at lysine P07954_K311", "setting": "[2]; 50 uM, 231 sol, in vitro", "result": 2.2}, {"measurement": "isoTOP-ABPP reactivity ratio at lysine Q9BYT8_K253", "setting": "[4]; 50 uM, 231 sol, in vitro", "result": 4.1}, {"measurement": "isoTOP-ABPP reactivity ratio at lysine P26358_K45", "setting": "[5]; 50 uM, 231 sol, in vitro", "result": 0.9}]}, {"smiles": "O=C(Oc1ccc([N+](=O)[O-])cc1[N+](=O)[O-])c1ccc(-c2ccccc2)cc1", "note": "[fragment 37, 2,4-Dinitrophenyl [1,1′-biphenyl]-4-carboxylate]", "values": [{"measurement": "isoTOP-ABPP ratio (R) at liganded lysine Q16864_K6", "setting": "[1]; 50 uM, in vitro", "result": 1.0}, {"measurement": "isoTOP-ABPP ratio (R) at liganded lysine P07954_K311", "setting": "[2]; 50 uM, in vitro", "result": 1.2}, {"measurement": "isoTOP-ABPP ratio (R) at liganded lysine P04179_K68", "setting": "[3]", "result": 1.7}, {"measurement": "isoTOP-ABPP ratio (R) at liganded lysine Q9BYT8_K253", "setting": "[4]; 50 uM, in vitro", "result": 0.9}, {"measurement": "isoTOP-ABPP ratio (R) at liganded lysine P26358_K45", "setting": "[5]; 50 uM, in vitro", "result": 0.7}]}, {"smiles": "O=C(Oc1ccc([N+](=O)[O-])cc1[N+](=O)[O-])c1ccc(Oc2ccccc2)cc1", "note": "[fragment 39, 2,4-Dinitrophenyl 4-phenoxybenzoate]", "values": [{"measurement": "isoTOP-ABPP ratio (R) at liganded lysine P02766_K35", "setting": "TTR Transthyretin; 50 uM, in vitro", "result": 2.2}, {"measurement": "isoTOP-ABPP ratio (R) at liganded lysine Q16864_K6", "setting": "[1]; 50 uM, in vitro", "result": 0.9}, {"measurement": "isoTOP-ABPP ratio (R) at liganded lysine P07954_K311", "setting": "[2]; 50 uM, in vitro", "result": 0.9}, {"measurement": "isoTOP-ABPP ratio (R) at liganded lysine P04179_K68", "setting": "[3]", "result": 1.0}, {"measurement": "isoTOP-ABPP ratio (R) at liganded lysine Q9BYT8_K253", "setting": "[4]; 50 uM, in vitro", "result": 1.1}, {"measurement": "isoTOP-ABPP ratio (R) at liganded lysine P26358_K45", "setting": "[5]; 50 uM, in vitro", "result": 1.0}]}, {"smiles": "CC(C)(C)OC(=O)NCCCC(=O)Oc1ccc([N+](=O)[O-])cc1[N+](=O)[O-]", "note": "[fragment 41, 2,4-Dinitrophenyl 4-((tert-butoxycarbonyl)amino)butanoate]", "values": [{"measurement": "isoTOP-ABPP ratio (R) at liganded lysine P02766_K35", "setting": "TTR Transthyretin; 50 uM, in vitro", "result": 3.4}, {"measurement": "isoTOP-ABPP ratio (R) at liganded lysine Q16864_K6", "setting": "[1]; 50 uM, in vitro", "result": 1.0}, {"measurement": "isoTOP-ABPP ratio (R) at liganded lysine P07954_K311", "setting": "[2]; 50 uM, in vitro", "result": 1.0}, {"measurement": "isoTOP-ABPP ratio (R) at liganded lysine P04179_K68", "setting": "[3]", "result": 4.8}, {"measurement": "isoTOP-ABPP ratio (R) at liganded lysine Q9BYT8_K253", "setting": "[4]; 50 uM, in vitro", "result": 1.3}]}, {"smiles": "O=C(CCc1ccc2c(c1)OCO2)Oc1ccc([N+](=O)[O-])cc1[N+](=O)[O-]", "note": "[fragment 45, 2,4-Dinitrophenyl 3-(benzo[d][1,3]dioxol-5-yl)propanoate]", "values": [{"measurement": "isoTOP-ABPP ratio, lysine P02766_K35", "setting": "TTR Transthyretin; 50 uM_231_sol_in vitro", "result": 2.5}, {"measurement": "isoTOP-ABPP ratio, lysine Q16864_K6", "setting": "[1]; 50 uM_231_sol_in vitro", "result": 1.0}, {"measurement": "isoTOP-ABPP ratio, lysine P07954_K311", "setting": "[2]; 50 uM_231_sol_in vitro", "result": 1.8}, {"measurement": "isoTOP-ABPP ratio, lysine P04179_K68", "setting": "[3]; 50 uM_231_sol_in vitro", "result": 0.9}, {"measurement": "isoTOP-ABPP ratio, lysine Q9BYT8_K253", "setting": "[4]; 50 uM_231_sol_in vitro", "result": 1.3}, {"measurement": "isoTOP-ABPP ratio, lysine P26358_K45", "setting": "[5]; 50 uM_231_sol_in vitro", "result": 1.0}]}]}
